Data published in patent US4788136A, “Diagnostic immunoassay by solid phase separation for digoxin” (priority 1987, dated 1988).

How the values were obtained:
anti-digoxin antibodies [1] = assay: TDx Abbott Digoxin II assay, antigenicity (cross-reactivity) of cardiac glycoside analogs; assay type: binding; conditions: TDx analyzer, aqueous solutions in TDx dilution buffer, observed assay concentration divided by actual analog concentration times 100
Procedure: (§1) The antigencity of cardiac glycoside analogs was first determined using the TDx@ analyzer and the Abbott Digoxin II assay commercially available from Abbott Laboratories, Abbott Park, Il 60064. Analogs were evaluated as aqueous solutions in TDx dilution buffer. Several analogs were also subsequently evaluated using the new digoxin assay described herein (see generally Example IV) using a ouabain triacetate solid phase prepared in accordance with Example IIB. Analogs evaluated were: [drawing 3] wherein R1 =R2 =R3 =Ac, X=O, Y1, Z1 and Y2, Z2 =a bond connecting the two carbon atoms to which they are attached (A); R1 =R2 =R3 =Ac, X=O, Y1 =OH, Z1 =H, Y2 and Z2 =a bond connecting the two carbon atoms to which they are attached (B); R1 =R2 =R3 =Ac, X=O, Y1 =Y2 =OH, Z1 =Z2 =H (C); and R1 =R2 =R3 =H, X=N, Y1 =Y2 =OH, Z1 =Z2 =H (D). Cross-reactivity was defined as the observed assay concentration divided by the actual analog concentration times 100.

[2] = tested on: β-galactosidase-labeled F(ab')2 (anti-digoxin); assay: New digoxin assay (ouabain triacetate solid phase), cross-reactivity of analogs; assay type: binding, Rabbit; conditions: new digoxin assay using ouabain triacetate solid phase; observed assay concentration divided by actual analog concentration times 100
Procedure: as §1

anti-digoxin antibodies [3] = conditions: known compounds for immobilization (background); cited from earlier work
[4] = tested on: β-galactosidase-labeled F(ab')2; assay: Non-competitive assay for digoxin in serum with immobilized ouabain triacetate solid phase (standard curve)
Procedure: The general assay format consists of preincubation of excess β-galactosidase-labeled F(ab')2 (Example II A) with sample such that sample is quantitatively and rapidly bound to form an analyte-β-galactosidase-labeled F(ab')2 conjugate. An aliquot of this mixture is transferred to a vessel containing a ouabain triacetate-albumin-trisacryl solid phase prepared in accordance with procedure of Example II B and having a characteristic density to be easily suspended in solution yet sufficiently dense to rapidly sediment by gravity. The solid phase material rapidly captures the excess unconjugated β-galactosidase-labeled F(ab')2 and sediments. Following the capture reaction and sedimentation an aliguot containing analyte-β-galactosidase-labeled F(ab')2 is transfered to a cuvette for quantitation using a fluorogenic substrate.
Serum solutions containing 0, 0.5, 1.0, 2.0, 3.0 and 5.0 nanograms per milliliter of digoxin were each tested following the same assay protocol described below. A control was also run with zero digoxin and no solid phase material. Fifty microliters of serum sample was mixed with 25 microliters of the β-galactosidase-labeled F(ab')2 (Example II A) and 325 microliters of TDx dilution buffer. The reaction mixture was incubated at 34-35 degrees Celsius for 6 minutes and then a 60 microliter aliquot and 55 microliters of TDx dilution buffer was added to 10 mg of solid phase material (Example II B). The mixture was incubated for 10 minutes with mixing. 400 ul of TDx dilution buffer was then added to the mixture.
The mixture was allowed to rest briefly whereupon it separated into a liquid and solid phase. The β-galactosidase activity of the supernatant was measured by quantitating the production of fluorescein. The measurement was made using 10 micromolar di-(β-D-galactosyl)-fluorescein as substrate in TDx dilution buffer containing 1 mM MgCl2.

Compound | CROSS-REACTIVITY (%) DIGOXIN II (anti-digoxin antibodies [1]) | CROSS-REACTIVITY (%) NEW ASSAY [2] | further results
CC1OC(OC2C(O)CC(OC3C(O)CC(OC4CCC5(C)C(CCC6C5CC(O)C5(C)C(C7=CC(=O)NC7)CCC65O)C4)OC3C)OC2C)CC(O)C1O (centres unmarked) [Digoxin Lactam] | 0.41% |  | 
C[C@H]1O[C@@H](O[C@H]2[C@@H](O)C[C@H](O[C@H]3[C@@H](O)C[C@H](O[C@H]4CC[C@@]5(C)[C@H](CC[C@@H]6[C@@H]5C[C@@H](O)[C@]5(C)[C@@H](C7=CC(=O)OC7)CC[C@]65O)C4)O[C@@H]3C)O[C@@H]2C)C[C@H](O)[C@@H]1O [Digoxin] | 100% | 100% | affinity for labeled anti digoxin antibody, in words (anti-digoxin antibodies [3]): relatively high affinity; Fluorescence Measured Rate ([4]; digoxin 0.5 ng/mL in serum): 160; Fluorescence Measured Rate ([4]; digoxin 1.0 ng/mL in serum): 220; Fluorescence Measured Rate ([4]; digoxin 2.0 ng/mL in serum): 448; Fluorescence Measured Rate ([4]; digoxin 3.0 ng/mL in serum): 745; Fluorescence Measured Rate ([4]; digoxin 5.0 ng/mL in serum): 1231
CC1OC(OC2CC(O)C3(CO)C4C(O)CC5(C)C(C6=CC(=O)NC6)CCC5(O)C4CCC3(O)C2)C(O)C(O)C1O (centres unmarked) [Ouabain Lactam (D)] | 9.1 × 10^-4% |  | 
CC(=O)OCC12C(=CCC3C4=CCC(C5=CC(=O)OC5)C4(C)CC(OC(C)=O)C31)CC(OC1OC(C)C(O)C(O)C1O)CC2OC(C)=O (centres unmarked) [Ouabain Triacetate (A)] | 1.6 × 10^-3% |  | 
CC(=O)OCC12C(OC(C)=O)CC(OC3OC(C)C(O)C(O)C3O)CC1(O)CCC1C3=CCC(C4=CC(=O)OC4)C3(C)CC(OC(C)=O)C12 (centres unmarked) [Ouabain Triacetate (B)] | 1.5 × 10^-3% |  | 
CC(=O)OCC12C(OC(C)=O)CC(OC3OC(C)C(O)C(O)C3O)CC1(O)CCC1C2C(OC(C)=O)CC2(C)C(C3=CC(=O)OC3)CCC12O (centres unmarked) [Ouabain Triacetate (C)] | 3.7 × 10^-4% | 2.2 × 10^-4% | 
C[C@@H]1O[C@@H](O[C@H]2C[C@@H](O)[C@]3(CO)[C@H]4[C@H](O)C[C@]5(C)[C@@H](C6=CC(=O)OC6)CC[C@]5(O)[C@@H]4CC[C@]3(O)C2)[C@H](O)[C@H](O)[C@H]1O [Ouabain] | 2.0 × 10^-2% | 1.8 × 10^-3% | affinity for labeled anti digoxin antibody, in words (anti-digoxin antibodies [3]): relatively high affinity
